From ChEMBL document CHEMBL2380265, “Inhibitors of the p53/hdm2 protein-protein interaction-path to the clinic” (Bioorg Med Chem Lett, 2013)
pIC50, pKd: −log10 of the molar value. Where a SMILES comes first, the peptide text is derived from it. [ ]: non-standard residue; d: D form. Trp(6-Cl) = N[C@@H](Cc1c[nH]c2cc(Cl)ccc12)C(=O)O; Pmp = N[C@@H](Cc1ccc(CP(=O)(O)O)cc1)C(=O)O; Ac3c = NC1(C(=O)O)CC1; Aib = CC(C)(N)C(=O)O

Assays:
[1] = target: T1, E3 ubiquitin-protein ligase Mdm2 (Homo sapiens, UniProt Q00987); assay: Antagonist activity at human MDM2
[2] = target: T1, E3 ubiquitin-protein ligase Mdm2; assay: Antagonist activity at human GST-tagged MDM2 assessed as inhibition of binding to full length p53
[3] = target: Tumour suppressor p53/oncoprotein Mdm2 (Homo sapiens, UniProt P04637+Q00987); assay: Binding affinity to human MDM2/p53; type: protein assay
Chain of Tumour suppressor p53/oncoprotein Mdm2 (P04637 whole entry): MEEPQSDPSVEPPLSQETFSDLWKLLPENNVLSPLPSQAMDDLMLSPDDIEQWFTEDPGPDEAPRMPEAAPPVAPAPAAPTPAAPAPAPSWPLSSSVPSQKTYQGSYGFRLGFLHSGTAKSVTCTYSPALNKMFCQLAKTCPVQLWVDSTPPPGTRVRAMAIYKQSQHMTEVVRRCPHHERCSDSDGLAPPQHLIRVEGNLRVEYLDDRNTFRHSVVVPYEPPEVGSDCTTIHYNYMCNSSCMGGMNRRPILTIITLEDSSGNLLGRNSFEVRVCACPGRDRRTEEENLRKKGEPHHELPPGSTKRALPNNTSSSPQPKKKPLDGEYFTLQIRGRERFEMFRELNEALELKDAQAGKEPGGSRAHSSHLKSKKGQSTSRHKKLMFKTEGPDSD
Chain of Tumour suppressor p53/oncoprotein Mdm2 (Q00987 whole entry): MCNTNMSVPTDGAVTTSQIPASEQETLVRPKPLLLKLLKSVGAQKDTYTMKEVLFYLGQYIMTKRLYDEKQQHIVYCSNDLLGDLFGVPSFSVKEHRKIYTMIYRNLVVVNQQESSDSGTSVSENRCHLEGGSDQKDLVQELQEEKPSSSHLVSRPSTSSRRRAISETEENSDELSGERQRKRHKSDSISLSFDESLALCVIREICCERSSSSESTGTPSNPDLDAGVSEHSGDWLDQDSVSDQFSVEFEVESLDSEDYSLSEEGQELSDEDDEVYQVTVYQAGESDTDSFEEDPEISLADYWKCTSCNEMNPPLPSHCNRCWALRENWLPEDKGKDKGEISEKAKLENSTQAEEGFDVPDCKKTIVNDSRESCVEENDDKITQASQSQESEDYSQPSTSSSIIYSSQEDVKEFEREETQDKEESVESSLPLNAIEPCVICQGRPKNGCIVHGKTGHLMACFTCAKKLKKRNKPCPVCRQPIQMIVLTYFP

T1 sequence (Q00987 whole entry): as above

pIC50 [1] | Compound | other results
6.50 | CSCC[C@H](NC(=O)[C@H](Cc1ccccc1)NC(=O)[C@H](CCCN=C(N)N)NC(=O)[C@@H]1CCCN1C(=O)[C@H](CCSC)NC(C)=O)C(=O)N[C@@H](CC(=O)O)C(=O)N[C@@H](Cc1ccc(O)cc1)C(=O)N[C@@H](Cc1c[nH]c2ccccc12)C(=O)N[C@@H](CCC(=O)O)C(=O)NCC(=O)N[C@@H](CC(C)C)C(=O)N[C@@H](CC(N)=O)C(N)=O (Ac-MPRFMDYWEGLN-NH2) | –
– | CSCC[C@H](NC(=O)[C@H](Cc1ccccc1)NC(C)=O)C(=O)NC(C)(C)C(=O)N[C@@H](Cc1ccc(CP(=O)(O)O)cc1)C(=O)N[C@@H](Cc1c[nH]c2cc(Cl)ccc12)C(=O)N[C@@H](CCC(=O)O)C(=O)NC1(C(=O)N[C@@H](CC(C)C)C(N)=O)CC1 (Ac-FM[Aib][Pmp][Trp(6-Cl)]E[Ac3c]L-NH2) | pIC50 [2]: 8.30
– | CCOc1cc(C(C)(C)C)ccc1C1=N[C@@H](c2ccc(Cl)cc2)[C@@H](c2ccc(Cl)cc2)N1C(=O)N1CCN(CCCS(C)(=O)=O)CC1 | pKd [3]: 7.97
5.05 | CSCC[C@H](NC(=O)[C@@H](N)Cc1ccccc1)C(=O)N[C@@H](CC(=O)O)C(=O)N[C@@H](Cc1ccc(O)cc1)C(=O)N[C@@H](Cc1c[nH]c2ccccc12)C(=O)N[C@@H](CCC(=O)O)C(=O)NCC(=O)N[C@@H](CC(C)C)C(N)=O (H-FMDYWEGL-NH2) | –
